Reference: patent publication US6046228A, “Anti-viral pharmaceutical compositions containing saturated 1,2-dithiaheterocyclic compounds and uses thereof” (priority 1999, dated 2000)
Like-named read-outs stand apart in the source and are kept apart here.

Key:
HIV-1ADA = experiment: antiviral assay in monocyte-macrophage cultures (p24); format: cell-based
Experimental: Initial anti-HIV screening was performed with CEM-SS cells and HIV-1RFusing the XTT cytoprotection assay as previously described (Weislow et al., J. National Cancer Inst. 81: 577-586, (1989)). HIV-1 isolates included common laboratory stains (RF, IIIB and MN), as well as a panel of HIV-1 clinical isolates (Cushman et al., J. Med. Chem. 37: 3040-3050, (1994)). The pyridone-resistant HIV-1A17 isolate (Nunberg et al., J. Virol., 65: 4887-4892 (1991)) was obtained from Emilio Emini at Merck Sharpe and Dohme Laboratories. Phytohemagglutinin-stimulated human peripheral blood lymphocytes (PBLs) and fresh monocyte-macrophage (Mono/MF) cultures were prepared and utilized in antiviral assays as previously described (Rice et al., Proc. Nat'l. Academy Science, USA 90: 9721-9724, (1993)); (Cushman et al., J. Med. Chem. 37: 3040-3050, (1994)). EC50 values for these cultures indicate the drug concentration that provided a 50% reduction in viral p24 production. […] The compounds can be synthesized according to the teachings of Singh et al., Sulfur Letters 8: 107-114, (1988). The 4,5-cis-dihydroxy(1,1-dioxy-1,2,-dithiohexane) compound (NSC 624151) has been abbreviated as 624151 for convenience. MT-2, MT-4, U1, HeLa-CD4-LTR-β-gal and 174xCEM cells were obtained from the AIDS Research and Reference Program (National Institute of Allergy and Infectious Disease, National Institutes of Health, Bethesda, Md. USA), as were the HIV-2MS and the AZT-resistant HIV-1G910-6 isolates. […]

HIV-1 p7NC protein = target: T1, HIV-1 p7NC protein (Human immunodeficiency virus type 1 group M subtype B, UniProt P04591); experiment: Trp37 zinc finger fluorescence assay (zinc ejection from p7NC); format: biochemical; settings: in words; for zinc ejection: FIG. 1(A)
T1 construct: recombinant HIV-1 p7NC protein
Experimental: Fluorescence measurements of the Trp^37 residue in the C-terminal zinc finger of the recombinant HIV-1 p7NC protein were performed as previously described (Rice et al., Science 270:1194, 1995). The p7NC protein was prepared at 20 μg/ml in 10 mM sodium phosphate buffer (pH 7.0), treated with 25 μM of each compound, then after indicated time intervals the samples were diluted 1/10 in 10 mM sodium phosphate buffer (pH 7.0) and the fluorescence intensity measured. The excitation and emission wavelengths utilized with the Shimadzu RF5000 spectrofluorimeter were 280 nm and 351 nm, respectively. In an alternate assay, the zinc-selective fluorescent probe N-(6-methoxy-8quinolyl-)-p-toluenesulfonamide (TSQ, Molecular Probes, Eugene, Oreg.) originally described by Fredrickson (J. Neurosci. Meth. 20:91, 1987) was utilized to measure zinc released from the p7NC protein in vitro. Briefly, 2 μM recombinant HIV-1 p7NC protein in 10 mM sodium phosphate buffer, pH 7.0, 10% glycerol was treated with 10 μM 624151 ([…] total volume in 96-well plates), and the time-dependent increase in fluorescence was measured on a Labsystems Fluoroskan II (360 nm excitation filter and 460 nm emission filter) over a period of 2 hours. Induction of alterations of p7NC proteins within intact virions involved treatment of HIV-1MN for 1 hour at 37° C. with 25 μM test compound. Samples were centrifuged 1 hour at 4° C. under 18,000×g to pellet the virus from the drug. Virus pellets were resolved by non-reducing SDS-PAGE and analyzed by immunoblot using monospecific rabbit antisera to the purified p7NC protein.
^b The percent decrease in RFU was calculated based on measurement of
the initial fluorescence of the p7NC protein before and 10 minutes after
treatment with the 25 μM of compound at ambient temperature.
The ability of 624151 to chemically interact with the zinc fingers of the HIV-1 p7NC protein was initially determined by a fluorescence assay (Rice et al., Science 270:1194-1197, (1995)) that measures a loss in intrinsic fluorescence of the tryptophan (Trp^37) residue in the second finger of the protein that occurs upon loss of zinc from the finger (Summers et al., Protein Sci. 1:563, 1992). […] As the 624151 modifies the zinc finger thiolates and the zinc is ejected over time, the metal is bound by the TSQ fluorochrome (FIG. 1(B)).
Sodium Phosphate buffer, pH 7.0 in 1 ml was treated with 25 μM of
compound. At indicated times, the mixture was diluted 1/10 and the
relative fluorescence units (RFU) measured in a Shimadzu RF5000
spectrofluorimeter with […] and Em = 351 mn. Following
loss of zinc from the Cterminal zinc finger, the Trp37 residue folds away
from the # aqueous environment and experiences a loss of fluorescence.

HIV-1RF = experiment: XTT cytoprotection (cytopathicity) anti-HIV assay, CEM-SS cells; format: cell-based; settings: for EC50: Human immunodeficiency virus 1, CEM-SS; for antiviral activity / efficacy: in words
Experimental: (§1) Initial anti-HIV screening was performed with CEM-SS cells and HIV-1RFusing the XTT cytoprotection assay as previously described (Weislow et al., J. National Cancer Inst. 81: 577-586, (1989)). HIV-1 isolates included common laboratory stains (RF, IIIB and MN), as well as a panel of HIV-1 clinical isolates (Cushman et al., J. Med. Chem. 37: 3040-3050, (1994)). The pyridone-resistant HIV-1A17 isolate (Nunberg et al., J. Virol., 65: 4887-4892 (1991)) was obtained from Emilio Emini at Merck Sharpe and Dohme Laboratories. Phytohemagglutinin-stimulated human peripheral blood lymphocytes (PBLs) and fresh monocyte-macrophage (Mono/MF) cultures were prepared and utilized in antiviral assays as previously described (Rice et al., Proc. Nat'l. Academy Science, USA 90: 9721-9724, (1993)); (Cushman et al., J. Med. Chem. 37: 3040-3050, (1994)). EC50 values for these cultures indicate the drug concentration that provided a 50% reduction in viral p24 production. […] The compounds can be synthesized according to the teachings of Singh et al., Sulfur Letters 8: 107-114, (1988). […] MT-2, MT-4, U1, HeLa-CD4-LTR-β-gal and 174xCEM cells were obtained from the AIDS Research and Reference Program (National Institute of Allergy and Infectious Disease, National Institutes of Health, Bethesda, Md. USA), as were the HIV-2MS and the AZT-resistant HIV-1G910-6 isolates.
(§2) Racemate and enantiomers of the cis-1,1-dioxo[1,2]dithiane-4,5-diol were synthesized and evaluated for antiviral activity in the XTT assay as described hereinabove.

CEM-SS cells = experiment: XTT assay, cytotoxicity (IC50), CEM-SS cells; format: cell-based; settings: Homo sapiens, CEM-SS, cytotoxicity, CEM-SS cells; read-out: XTT Assay IC50
Experimental: as §1, §2

[1] = tested on: monocyte-macrophage (Mo/M.PHI.) cultures; experiment: cytotoxicity in monocyte-macrophage cultures; format: cell-based
Experimental: Initial anti-HIV screening was performed with CEM-SS cells and HIV-1RFusing the XTT cytoprotection assay as previously described (Weislow et al., J. National Cancer Inst. 81: 577-586, (1989)). HIV-1 isolates included common laboratory stains (RF, IIIB and MN), as well as a panel of HIV-1 clinical isolates (Cushman et al., J. Med. Chem. 37: 3040-3050, (1994)). The pyridone-resistant HIV-1A17 isolate (Nunberg et al., J. Virol., 65: 4887-4892 (1991)) was obtained from Emilio Emini at Merck Sharpe and Dohme Laboratories. Phytohemagglutinin-stimulated human peripheral blood lymphocytes (PBLs) and fresh monocyte-macrophage (Mono/MF) cultures were prepared and utilized in antiviral assays as previously described (Rice et al., Proc. Nat'l. Academy Science, USA 90: 9721-9724, (1993)); (Cushman et al., J. Med. Chem. 37: 3040-3050, (1994)). EC50 values for these cultures indicate the drug concentration that provided a 50% reduction in viral p24 production. […] The compounds can be synthesized according to the teachings of Singh et al., Sulfur Letters 8: 107-114, (1988). The 4,5-cis-dihydroxy(1,1-dioxy-1,2,-dithiohexane) compound (NSC 624151) has been abbreviated as 624151 for convenience. MT-2, MT-4, U1, HeLa-CD4-LTR-β-gal and 174xCEM cells were obtained from the AIDS Research and Reference Program (National Institute of Allergy and Infectious Disease, National Institutes of Health, Bethesda, Md. USA), as were the HIV-2MS and the AZT-resistant HIV-1G910-6 isolates.

[2] = CEM-SS cells, HIV-1RF, read-out: XTT Assay EC50
[3] = Human immunodeficiency virus 1, read-out: Mo/M.PHI. EC50

## O=S1(=O)C[C@@H](O)[C@H](O)CS1 (relative stereo) [NSC 624152]
HIV-1ADA; Human immunodeficiency virus 1, HIV-1ADA, monocyte/macrophage cultures, 50% reduction in p24, read-out: Mo/M.PHI. EC50
  EC50: 9.1 µM
HIV-1 p7NC protein
  reactivity with the zinc fingers: equivalent reactivity with the zinc fingers
HIV-1RF; [2]
  EC50: 13.1 µM
HIV-1RF
  antiviral activity / efficacy: only a slight reduction in the antiviral efficacy
CEM-SS cells
  IC50: 135 µM
[1]
  IC50: > 100 µM

## [O-][S+]1C[C@@H](O)[C@H](O)CS1 (relative stereo) [NSC 663603]
HIV-1ADA; [3]
  EC50: > 100 µM
CEM-SS cells
  IC50: 59.3 µM
[1]
  IC50: > 100 µM

## O[C@@H]1CSSC[C@H]1O (relative stereo) [NSC 663605]
HIV-1ADA; [3]
  EC50: > 100 µM
CEM-SS cells
  IC50: > 200 µM
[1]
  IC50: > 100 µM

## [O-][S+]1C[C@@H](O)[C@@H](O)CS1 (relative stereo) [NSC 667090]
HIV-1ADA; [3]
  EC50: > 100 µM
HIV-1 p7NC protein
  reactivity with the zinc fingers: essentially a complete loss of reactivity with the zinc fingers
HIV-1RF
  antiviral activity / efficacy: complete abolition of antiviral activity
CEM-SS cells
  IC50: 103 µM
[1]
  IC50: > 100 µM

## CC(=O)O[C@H]1CSS(=O)(=O)C[C@H]1OC(C)=O (relative stereo) [NSC 667091]
HIV-1ADA; [3]
  EC50: 25 µM
CEM-SS cells
  IC50: 9.2 µM
[1]
  IC50: > 100 µM

## CC(=O)O[C@@H]1CSSC[C@H]1OC(C)=O (relative stereo) [NSC 667092]
HIV-1ADA; [3]
  EC50: > 100 µM
HIV-1 p7NC protein
  reactivity with the zinc fingers: essentially a complete loss of reactivity with the zinc fingers
HIV-1RF
  antiviral activity / efficacy: complete abolition of antiviral activity
CEM-SS cells
  IC50: > 200 µM
[1]
  IC50: > 100 µM

## CC(=O)O[C@@H]1CS[S+]([O-])C[C@H]1OC(C)=O (relative stereo) [NSC 667094]
HIV-1ADA; [3]
  EC50: 5.5 µM
CEM-SS cells
  IC50: 22.1 µM
[1]
  IC50: > 100 µM

## Nc1ccn([C@H]2CC[C@@H](CO)O2)c(=O)n1 [DDC, reference compound]
HIV-1 p7NC protein
  zinc ejection: do not

## CSC[C@H](NC(=O)COc1cccc2cnccc12)C(=O)N[C@@H](Cc1ccccc1)[C@H](O)C(=O)N1CSC[C@H]1C(=O)NC(C)(C)C [KNI-272, reference compound]
HIV-1 p7NC protein
  zinc ejection: do not

## [O-][S+]1CCCCS1 (stereo not drawn) [NSC 56224]
HIV-1ADA; [3]
  EC50: > 100 µM
CEM-SS cells
  IC50: 26.2 µM
[1]
  IC50: > 100 µM

## OCC1(CO)CSSC1 [NSC 72270]
HIV-1ADA; [3]
  EC50: > 100 µM
CEM-SS cells
  IC50: > 200 µM
[1]
  IC50: > 100 µM

## NC(=O)NN=C1CSSC1 [NSC 208744]
HIV-1RF; [2]
  EC50: 28.7 µM
CEM-SS cells
  IC50: 127 µM

## O=C1NC(=O)C2(CSSC2)N1 [NSC 208750]
HIV-1RF; [2]
  EC50: 1.83 µM
CEM-SS cells
  IC50: 24.8 µM

## NC1(C(=O)O)CSSC1 [NSC 212561]
HIV-1RF; [2]
  EC50: 3.06 µM
CEM-SS cells
  IC50: 10.7 µM

## O=S1(=O)CCCCS1 [NSC 627175]
HIV-1ADA; [3]
  EC50: 25 µM
CEM-SS cells
  IC50: 5.7 µM
[1]
  IC50: > 100 µM

## O=C(O)CCCCC1CCSS1 (stereo not drawn) [NSC 628502]
HIV-1RF; read-out: XTT Assay EC50, CEM-SS cells, HIV-1RF
  EC50: 590 µM
CEM-SS cells
  IC50: > 1210 µM

## CC(=O)OCC1(COC(C)=O)CSSC1 [NSC 660167]
HIV-1ADA; [3]
  EC50: > 100 µM
CEM-SS cells
  IC50: > 200 µM
[1]
  IC50: > 100 µM

## CC(=O)OCC1(COC(C)=O)CSS(=O)(=O)C1 [NSC 661126]
HIV-1ADA; [3]
  EC50: 21 µM
HIV-1RF; [2]
  EC50: 9.8 µM
CEM-SS cells
  IC50: 30.3 µM
[1]
  IC50: > 100 µM

## O=S1(=O)CC(CO)(CO)CS1 [NSC 661127]
HIV-1RF; [2]
  EC50: 34 µM
CEM-SS cells
  IC50: 378 µM

## [O-][S+]1CC(CO)(CO)CS1 (stereo not drawn) [NSC 661753]
HIV-1ADA; [3]
  EC50: 46 µM
CEM-SS cells
  IC50: > 200 µM
[1]
  IC50: > 100 µM

## CC(=O)OCC1(COC(C)=O)CS[S+]([O-])C1 (stereo not drawn) [NSC 661754]
HIV-1ADA; [3]
  EC50: > 100 µM
CEM-SS cells
  IC50: 14.3 µM
[1]
  IC50: > 100 µM

## O[C@@H]1CSSC[C@@H]1O [NSC 667089]
HIV-1ADA; [3]
  EC50: > 100 µM
CEM-SS cells
  IC50: 20.1 µM
[1]
  IC50: > 100 µM

## CC(=O)O[C@H]1CSSC[C@H]1OC(C)=O [NSC 667093]
HIV-1ADA; [3]
  EC50: > 100 µM
CEM-SS cells
  IC50: > 200 µM
[1]
  IC50: > 100 µM

## CC(C)OC(=O)c1cc(NC(=S)OC(C)C)ccc1Cl [UC38, reference compound]
HIV-1 p7NC protein
  zinc ejection: do not
